Measurements: patent US20090240058A1, “Activator for Peroxisome Proliferator-Activating Receptor Delta” (priority 2005, published 2009)

Legend:
hPPAR γ (LBD) = molecular target: T1, hPPAR γ (LBD) (Homo sapiens, UniProt P37231); experiment: GAL4-hPPAR γ (LBD) luciferase reporter transactivation in CV-1 cells; format: cell-based; design: key: IA: inactive; details: relative to 100% of Rosiglitazone at 10^−5 M
T1 construct: A receptor expression plasmid (pSG5-GAL4-hPPAR α or γ or δ (LBD)); GAL4 (fusion partner); expressed in transfected cells; host or cells: CV-1 cells (ATCC)
T1 sequence (P37231 238-503 limits assumed): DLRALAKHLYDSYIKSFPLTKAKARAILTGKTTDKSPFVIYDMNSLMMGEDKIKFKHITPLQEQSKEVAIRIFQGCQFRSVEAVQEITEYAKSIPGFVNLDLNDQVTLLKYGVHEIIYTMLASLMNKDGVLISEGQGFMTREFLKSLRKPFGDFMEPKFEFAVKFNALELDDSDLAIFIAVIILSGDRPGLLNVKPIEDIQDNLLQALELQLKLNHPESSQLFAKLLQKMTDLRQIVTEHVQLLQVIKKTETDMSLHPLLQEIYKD
Description: (§1) A receptor expression plasmid (pSG5-GAL4-hPPAR α or γ or δ (LBD)), a luciferase expression plasmid (pUC8-MH100x4-TK-Luc) and β-galactosidase expression plasmid (pCMX-β-GAL) (Kliewer, S. A., et. al., (1992) Nature, 358:771-774) are transfected into CV-1 cells (ATCC). After gene transfer utilizing a lipofection reagent DMRIE-C or Lipofectamin 2000 (Invitrogen), it is incubated for 42 hours in the presence of the test compound. Then, the luciferase activity and β-GAL activity are measured on the soluble cells. The luciferase activity is calibrated by the β-GAL activity. A relative ligand activity is calculated for each of the PPARα, γ and δ under the following conditions: a relative activity of PPAR α is calculated in consideration of a luciferase activity (assigned to 100%) of cells treated with the compound described in Example 2 of the aforementioned Patent Publication 4 (PPARα-selective agonist); a relative activity of PPAR γ is calculated in consideration of a luciferase activity (assigned to 100%) cells treated with Rosiglitazone; and a relative activity of PPAR δ is calculated in consideration of a luciferase activity (assigned to 100%) of cells treated with GW-501516. See the below-described Examples 22 and 23.
(§2) The PPARδ activating effects of test compounds (compounds of Examples) were measured by the following method:
as §1, with “(pUC8-MH100x-4-TK-Luc)” for “(pUC8-MH100x4-TK-Luc)”, “approx. 40” for “42”, “PPAR α,” for “PPARα,”, “GW-501516.” for “GW-501516. See the below-described Examples 22 and 23.”
(§3) The experimental results Table 28 were obtained by procedures similar to the procedures for pharmacological experimental described in Example 22.

hPPAR α (LBD) = molecular target: T2, hPPAR α (LBD) (Homo sapiens, UniProt Q07869); experiment: GAL4-hPPAR α (LBD) luciferase reporter transactivation in CV-1 cells; format: cell-based; design: key: IA: inactive; details: relative to 100% of compound of Example 2 of Patent Publication 4 at 10^−6 M
T2 construct: A receptor expression plasmid (pSG5-GAL4-hPPAR α or γ or δ (LBD)); GAL4 (fusion partner); expressed in transfected cells; host or cells: CV-1 cells (ATCC)
T2 sequence (Q07869 239-466 limits assumed): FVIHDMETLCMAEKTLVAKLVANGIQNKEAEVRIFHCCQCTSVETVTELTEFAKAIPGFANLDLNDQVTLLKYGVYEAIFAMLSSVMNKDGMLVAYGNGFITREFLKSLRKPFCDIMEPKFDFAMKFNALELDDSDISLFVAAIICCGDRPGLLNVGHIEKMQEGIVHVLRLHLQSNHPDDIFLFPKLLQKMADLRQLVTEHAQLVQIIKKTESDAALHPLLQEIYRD
Description: as §1, §2
as §1, with “(pUC8-MH100x-4-TK-Luc)” for “(pUC8-MH100x4-TK-Luc)”, “approx. 40” for “42”, “PPAR α,” for “PPARα,”, “GW-501516.” for “GW-501516. See the below-described Examples 22 and 23.”
as §3

hPPAR δ (LBD) = molecular target: T3, hPPAR δ (LBD) (Homo sapiens, UniProt Q03181); experiment: GAL4-hPPAR δ (LBD) luciferase reporter transactivation in CV-1 cells; format: cell-based; details: relative to 100% of GW-501516 at 10^−7 M
T3 construct: A receptor expression plasmid (pSG5-GAL4-hPPAR α or γ or δ (LBD)); GAL4 (fusion partner); expressed in transfected cells; host or cells: CV-1 cells (ATCC)
T3 sequence (Q03181 211-439 limits assumed): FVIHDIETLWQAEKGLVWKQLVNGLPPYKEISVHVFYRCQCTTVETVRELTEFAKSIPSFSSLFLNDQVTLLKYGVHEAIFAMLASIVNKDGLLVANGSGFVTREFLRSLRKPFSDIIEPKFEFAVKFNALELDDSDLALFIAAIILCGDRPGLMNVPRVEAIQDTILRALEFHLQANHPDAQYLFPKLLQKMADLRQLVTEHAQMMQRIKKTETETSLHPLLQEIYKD
Description: For determining PPARδ activating effect of the compounds according to the invention, PPARδ activating effects of test compounds (compounds of Examples) were measured by the following method:
as §1, §2
as §1, with “(pUC8-MH100x-4-TK-Luc)” for “(pUC8-MH100x4-TK-Luc)”, “approx. 40” for “42”, “PPAR α,” for “PPARα,”, “GW-501516.” for “GW-501516. See the below-described Examples 22 and 23.”
as §3

[1] = test compound 10^−7 M (Examples 8 and 10)
[2] = test compound 10^−7 M (Examples 5, 8 and 10)
[3] = Table 28, test compound 10^−6 M

Row | Structure (SMILES) | PPAR activity (%) γ (hPPAR γ (LBD); test compound 10^−6 M) | PPAR activity (%) α (hPPAR α (LBD); test compound 10^−6 M) | PPAR activity (%) δ (hPPAR δ (LBD); test compound 10^−6 M) [%] | melting point [°C] | PPAR activity (%) α (hPPAR α (LBD); [1]) [%] | PPAR activity (%) δ (hPPAR δ (LBD); [2]) [%] | PPAR activity (%) γ (hPPAR γ (LBD); [3]) | PPAR activity (%) α (hPPAR α (LBD); [3]) | PPAR activity (%) δ (hPPAR δ (LBD); [3]) [%]
1 | Cc1cc(C(C)CCc2cc(-c3ccc(C(F)(F)F)cc3)nn2C(C)C)ccc1OC(C)(C)C(=O)O (stereo not drawn) [Example 8, 2-[4-[3-[1-Isopropyl-3-(4-trifluoromethylphenyl)-1H-pyrazol-5-yl]-1-methylpropyl]-2-methylphenoxy]-2-methylpropionic acid] | 61% |  |  |  | 89 | 45 |  |  | 
2 | Cc1cc(C(=O)CCc2cn(-c3ccc(C(F)(F)F)cc3)nc2C(C)C)ccc1OC(C)(C)C(=O)O [Example 1, 2-[4-[3-[3-Isopropyl-1-(4-trifluoromethylphenyl)-1H-pyrazol-4-yl]propionyl]-2-methylphenoxy]-2-methylpropionic acid] | 7% | 62% | 87 |  |  |  |  |  | 
3 | Cc1cc(C(=O)CCc2cn(-c3ccc(C(F)(F)F)cc3)nc2C(C)C)ccc1OCC(=O)O [Example 2, 4-[3-[3-Isopropyl-1-(4-trifluoromethylphenyl)-1H-pyrazol-4-yl]propionyl]-2-methylphenoxyacetic acid] | IA | IA | 76 |  |  |  |  |  | 
4 | Cc1cc(C(=O)CCc2cc(-c3ccc(C(F)(F)F)cc3)nn2C(C)C)ccc1OC(C)(C)C(=O)O [Example 5, 2-[4-[3-[1-Isopropyl-3-(4-trifluoromethylphenyl)-1H-pyrazol-5-yl]propionyl]-2-methylphenoxy]-2-methylpropionic acid] | 15% | 109% |  |  |  | 93 |  |  | 
5 | C=C(CCc1cc(-c2ccc(C(F)(F)F)cc2)nn1C(C)C)c1ccc(OC(C)(C)C(=O)O)c(C)c1 [Example 7, 2-[4-[1-[2-[1-Isopropyl-3-(4-trifluoromethylphenyl)-1H-pyrazol-5-yl]ethyl]vinyl]-2-methylphenoxy]-2-methylpropionic acid] | 38% | 84% | 72 |  |  |  |  |  | 
6 | Cc1ccc(-n2cc(CCC(=O)c3ccc(OC(C)(C)C(=O)O)c(C)c3)c(C(C)C)n2)nc1 [Example 3, 2-[4-[3-[3-Isopropyl-1-(5-methylpyridin-2-yl)-1H-pyrazol-4-yl]propionyl]-2-methylphenoxy]-2-methylpropionic acid] | 30% | 131% | 72 |  |  |  |  |  | 
7 | Cc1cc(C(=O)CCc2cc(-c3ccc(C(F)(F)F)cc3)nn2C(C)C)ccc1OCC(=O)O [Example 6, [4-[3-[1-Isopropyl-3-(4-trifluoromethylphenyl)-1H-pyrazol-5-yl]propionyl]-2-methylphenoxy]acetic acid] | IA | IA | 86 | 160 to 163 |  |  |  |  | 

More lines, now with the values ahead:

Row | PPAR activity (%) γ (hPPAR γ (LBD); test compound 10^−6 M) | PPAR activity (%) α (hPPAR α (LBD); test compound 10^−6 M) | PPAR activity (%) δ (hPPAR δ (LBD); test compound 10^−6 M) [%] | melting point [°C] | PPAR activity (%) α (hPPAR α (LBD); [1]) [%] | PPAR activity (%) δ (hPPAR δ (LBD); [2]) [%] | PPAR activity (%) γ (hPPAR γ (LBD); [3]) | PPAR activity (%) α (hPPAR α (LBD); [3]) | PPAR activity (%) δ (hPPAR δ (LBD); [3]) [%] | Structure (SMILES)
8 | IA | IA | 81 | 118 to 123 |  |  |  |  |  | CCCCCCn1nc(-c2ccc(C(F)(F)F)cc2)cc1CCC(=O)c1ccc(OCC(=O)O)c(C)c1 [Example 11, [4-[3-[1-Hexyl-3-(4-trifluoromethylphenyl)-1H-pyrazol-5-yl]propionyl]-2-methylphenoxy]acetic acid]
9 |  |  |  | 139 to 143 |  |  | inactive | inactive | 92 | Cc1cc(C(=O)CCc2sc(-c3ccc(C(F)(F)F)cc3)cc2C(C)C)ccc1OCC(=O)O [Example 16, [4-[3-[3-Isopropyl-5-(4-trifluoromethylphenyl)thiophen-2-yl]propionyl]-2-methylphenoxy]acetic acid]
10 |  |  |  |  |  |  | 48% | 123% | 94 | CCCCCCn1nc(-c2ccc(C)cc2)cc1CCC(=O)c1ccc(OC(C)(C)C(=O)O)c(C)c1 [Example 14, 2-[4-[3-[1-Hexyl-3-(4-methylphenyl)-1H-pyrazol-5-yl]propionyl]-2-methylphenoxy]-2-methylpropionic acid]
11 |  |  |  |  |  |  | 11% | 99% | 85 | Cc1cc(C(=O)CCc2sc(-c3ccc(C(F)(F)F)cc3)cc2C(C)C)ccc1OC(C)(C)C(=O)O [Example 15, 2-[4-[3-[3-Isopropyl-5-(4-trifluoromethylphenyl)thiophen-2-yl]propionyl]-2-methylphenoxy]-2-methylpropionic acid]
12 | IA | IA | 82 |  |  |  |  |  |  | Cc1cc(C(=O)CCc2sc(-c3ccc(C(F)(F)F)cc3)cc2C)ccc1OCC(=O)O [Example 13, [2-Methyl-4-[3-[3-methyl-5-(4-trifluoromethylphenyl)thiophen-2-yl]propionyl]phenoxy]acetic acid]
13 | 29% | 51% | 94 |  |  |  |  |  |  | Cc1cc(C(=O)CCc2sc(-c3ccc(C(F)(F)F)cc3)cc2C)ccc1OC(C)(C)C(=O)O [Example 12, 2-Methyl-2-[2-methyl-4-[3-[3-methyl-5-(4-trifluoromethylphenyl)thiophen-2-yl]propionyl]phenoxy]-propionic acid]
14 |  |  |  |  |  |  | 35% | 109% | 76 | CCCCCCc1cc(-c2ccc(C)cc2)sc1CCC(=O)c1ccc(OC(C)(C)C(=O)O)c(C)c1 [Example 17, 2-[4-[3-[3-Hexyl-5-(4-methylphenyl)thiophen-2-yl]propionyl]-2-methylphenoxy]-2-methylpropionic acid]
15 | 29% | 73% | 59 |  |  |  |  |  |  | Cc1cc(C(=O)CCc2cc(-c3ccc(C(F)(F)F)cc3)nn2C(C)C)ccc1OC(C)C(=O)O (stereo not drawn) [Example 9, 2-[4-[3-[1-Isopropyl-3-(4-trifluoromethylphenyl)-1H-pyrazol-5-yl]propionyl]-2-methylphenoxy]propionic acid]
16 | 54% |  |  |  | 77 | 53 |  |  |  | CCCCCCn1nc(-c2ccc(C(F)(F)F)cc2)cc1CCC(=O)c1ccc(OC(C)(C)C(=O)O)c(C)c1 [Example 10, 2-[4-[3-[1-Hexyl-3-(4-trifluoromethylphenyl)-1H-pyrazol-5-yl]propionyl]-2-methylphenoxy]-2-methylpropionic acid]
